Measured values from article PMC9599717, “The Multicellular Effects of VDAC1 N-Terminal-Derived Peptide” (Biomolecules, 2022).

Assays:
vinculin in U-87MG cells = test: Vinculin immunofluorescence staining intensity; format: cell-based, human
Description: Cells were seeded on sterile glass coverslips in 12-well plates and cultured until reaching about 80% confluence. Cells were treated with D-Δ(1-18)N-Ter-Antp peptide in serum-free DMEM for 24 h. Then cells were washed with PBS, fixed in 4% paraformaldehyde for 20 min, washed three times with PBS, permeabilized with 0.3% Triton X-100 in PBS, and blocked, in blocking buffer (10% Normal goat serum, 1% fatty acid-free bovine serum albumin [BSA], 0.1% TritonX100 diluted in PBS) for 2 h. Cells were incubated overnight at 4 ℃ with the appropriate primary antibodies (Table S1), followed by three washes with PBS. […]
Quantitation of protein levels, as reflected in the staining intensity, was analyzed in the whole area of the sections using Image J software.
Figure 2 D-Δ(1-18)N-Ter-Antp-induced changes in cell morphology and cell membrane permeability. (A,B) U-87MG cells were treated with the indicated concentrations of D-Δ(1-18)N-Ter-Antp peptide for 16 h, and cell morphology was monitored by light microscope (A). Quantification of cell size (B). (C,D) U-87MG cells were untreated or treated with 10 μM of D-Δ(1-18)N-Ter-Antp peptide or N-TerΔ(21-26)-Antp for 24 h, and cell morphology was monitored by light microscope (C). Quantification of cell size (D). […] Quantification of vinculin staining intensity (F). […]

[1] = test system: U-87MG (human glioblastoma); test: Cell death by PI staining and flow cytometry (FACS), U-87MG; format: cell-based; conditions: U-87MG cells
Description: MEC-1 cells were incubated in a serum-free medium with various concentrations of VDAC1-based peptides for 1.5 h at room temperature (RT), collected by centrifugation, washed with phosphate-buffered saline (PBS), and analyzed for cell death. Adherent cancer cells were seeded in culture plates and allowed to adhere overnight in a sterile cell culture incubation chamber maintained at 37 °C and 5% CO2. The next day, media was removed from the plates, and cells were treated with various concentrations of VDAC1-based peptides for the indicated time in serum-free Dulbecco’s Modified Eagle Medium (DMEM) with and without DMSO (final 0.15%) as a control for 6 h at 37 °C and 5% CO2. Cells were trypsinized, centrifuged (1500× g, 5 min), and washed with PBS.
Cell death was analyzed by the propidium iodide (PI) staining, followed by flow cytometry with the iCyt sy3200 Benchtop Cell Sorter/Analyzer and analysis with EC800 v 1.3.7 software (Sony Biotechnology Inc., San Jose, CA, USA). Apoptosis was analyzed by PI and annexin V-FITC staining, which was carried out according to the manufacturer’s instructions with minor modifications. U-87MG cells, untreated (control) or treated with various concentrations of VDAC1-based peptides, were harvested and washed once with binding buffer (10 mM HEPES/NaOH, pH 7.4, 140 mM NaCl, and 2.5 mM CaCl2). […] Next, cells were washed and PI (6.25 μg/mL), was added immediately before flow cytometry At least 10,000 events were collected, recorded on a dot plot, and analyzed by flow cytometry.
Figure 1 VDAC1-based peptides induced cell death in various cancer cell lines. […] (E) Human cervix adenocarcinoma (HeLa) (▲) and human glioblastoma (U-87MG) (●, ○) cell lines were incubated 6 h with the indicated concentrations of D-Δ(1-18)N-Ter-Antp peptide and analyzed for cell death PI staining and flow cytometry (o,▲) or FITC–annexin V/PI staining and flow cytometry analysis (●). (F) U-87MG cells were treated with 10 µM (○), 20 µM (●) or without (Δ) of D-Δ(1-18)N-Ter-Antp peptide for the indicated times, and cell death was analyzed by PI staining and flow cytometry. […]

## 19-FTKGYGFGL-26- RQIKIWFQNRRMKWKK [D-Δ(1-18)N-Ter-Antp]
Vinculin in U-87MG cells
  Increase of vinculin expression compared to untreated cells: 4 fold
[1]; 3-h incubation, 10 or 20 µM tested (Figure 1F), PI staining
  Cell death in time course: about 70%
[1]; 6 h
  Maximal cell death (at the concentration for maximal cell death): 70%
[1]; 6 h incubation, serum-free medium, PI staining and FACS, read-out: IC50, peptide concentration required for half-maximal cell death activity
  IC50: 6 µM
